In US4444776A, “Dipyrido (4,3-B) (3,4-F) indoles, process for obtaining them, therapeutical use and pharmaceutical compositions” (priority 1977, dated 1984):
Where two headings read alike, the source gives them in different places.

What was measured:
[1] = test system: Moloney virus / viro-induced Moloney sarcoma; experiment: Test 3: development of the viro-induced Moloney sarcoma; format: in vivo, new-born mice; conditions: 1 μg/mouse (0.5 mg/kg)
Excerpt: The study of the development of the MOLONEY viro-induced sarcoma (Nat. Cancer. Inst. Monograph 22, 139-142, 1966) has also made it possible to determine that the compounds according to the invention are antiviral and antitumoral agents in lower animals.
Test 3: Study of the development of the viro-induced Moloney sarcoma
The injection of Moloney virus [C. Jasmin et al. J. Nat. Cander Inst. 1974 53 469-474] by the intramuscular i.m. route into new-born mice led after 10 days to the formation of a sarcoma. The appearance of the tumour was proportional to the dose of virus injected. The viral inoculum was constituted by a tumor homogenate diluted to 1/250, this corresponding to 10 TID 50, i.e. to the dose of virus inducing the appearance of a tumour in 50% of the animals infected. At this dose, 80 to 100% of the animals developed a tumour, and 100% of the survivors became leukemic. The experiment thus consisted in noting the number of mice presenting tumours, the regression, or not, of these tumours and finally in sacrificing the surviving animals after 2 months and in noting the presence or absence of splenomegaly (evidence of a leukemia). The virus was inoculated into new-born mice of 3 to 5 days by the IM route, and the mice received the following day (J+1) or five hours after injection (JO+5 hours) the product to be tested by the IP route.

[2] = Test 4: toxicity on adult F1 mice, IP; conditions: in vivo
Excerpt: Test 4: Investigation of the toxicity
The toxic dose has been sought, on adult ([…]×DBA/2) Fl mice and on new-born mice, of the compounds of the invention by injection by the IP route. The results obtained are given hereinafter:
1- On adult F1 mice (C 57 BL 6×DBA/2)F1 (IP route)

[3] = Test 8: acute toxicity in vivo, C3H mice; conditions: mouse, read-out: LD 500
Experimental: (§1) Test 8: Acute toxicity in vivo
(§2) The products to be tested were injected by the IP route into groups of 10 mice at various dilutions. Each day, the number of dead animals is noted. If the doses are well chosen, a 100% lethal dose and a 50% lethal dose have been able to be defined for each product. This study is limited to two months. Two isogenic mouse strains were systematically used: C3H/He and ICFW.

[4] = test system: C3H/He mice; experiment: Test 8: acute toxicity in vivo, C3H mice; conditions: mouse, ip
Experimental: as §1, §2

[5] = test system: L 1210 leukemia; experiment: Test 12: single vs fractioned dose, L 1210 leukemic mice (Table IX); format: in vivo, mouse; design: MTS: unit not given beside the values
[6] = test system: Lewis carcinoma (3LL); experiment: Test 13: Lewis carcinoma, antimetastasic effect; format: in vivo, BDF1 mice; conditions: for MST: controls 25
Experimental: "carcinome pulmonaire de Lewis" (3LL), K. SUGIURA and C. C. STOCK," Cancer Res. 1955 15 38-51.
In this test, cells (10^6 cells) removed from a tumour-carrying mouse were injected into mice(BDF1) by the IM route. The mice developed, 10 to 15 days after the inoculation, a tumour at the spot where the injection was made. On the other hand, these cells made metastasis in the lung, forming colonies on the pulmonary surface. The antitumoral and antimetastasic effect of a product may therefore be judged on mice thus treated.
Investigation of the antimetastasic effect of the compounds of examples 7 and 8 of the invention
10^6 cells taken from a tumour-carrying mouse were injected by the IM route (left-band paw) into groups of 10 mice and the compounds to be tested were inoculated by the IP route on day J+5 by single or fractioned injection. The mean survival time (MST) and the increased life span (ILS %) were determined.

[7] = test system: Friend leukemia virus; experiment: Test 2: viro-induced Friend leukemia (Table II); format: in vivo, DBA2 mice; conditions: for mean spleen weight (range): 21 days after virus; for ILS % / Weight of the spleens on the 21st day / Mean survival time (first-last death): VFA 1/250, 5 hrs after the virus
Excerpt: The protective power of the compounds according to the invention have also been sought on the Friend viro-induced leukemia (J. Exp. Med. 1957-105-307-318) and it has been determined that the compounds according to the invention are antiviral and antitumoral agents in lower animals.
Test 2. Viro-induced Leukemia: Friend leukemia
The protective power of the compounds according to the invention was sought on Friend leukemia, inoculated into DBA2 mice aged from 5-6 weeks. The viral inoculum was produced from a homogenate of leukemic spleen (p/volume) diluted to 1/250 in isotonic phosphate buffer without Ca^++ nor Mg^++ (PBS), corresponding to 100 SD 50 (i.e. to the dose of virus which induces a splenomegaly in 50% of the inoculated mice).
The virus was injected by the IP route and in a volume of 0.2 ml. The product to be tested was injected 5 hours after the virus or 1 day after the virus at the dose indicated in a volume of 0.1 ml (IP route). Each group of twenty control mice received the virus and a placebo or the product to be tested, 10 mice were sacrified on the 21st day, and their spleen removed and weighed. The mice were considered as leukemic when the weight of their spleen exceed 200 mg. For the 10 mice, the life span of the animals was determined.

[8] = 10^4 cells, 0.2 mg/mouse single at J+3
[9] = 10^4 cells, 4 × 0.05 mg/mouse at J+3+4+5+6
[10] = 10^5 cells, 0.2 mg/mouse single at J+3
[11] = 10^5 cells, 4 × 0.05 mg/mouse at J+3+4+5+6
[12] = 4 injections J+5+6+10+11, 2.5 mg/kg each

CCN(CC)CCCNc1nccc2c(C)c3[nH]c4ccncc4c3cc12 [Example 7, 1-(γ-diethylaminopropyl)amino-5-methyl-dipyrido-[4,3-b][3,4-f] indole]
animals survived ([1]; J+1): 90%
mice presenting tumours ([1]; J+1): 70%
mice with leukemia ([1]; J+1): 0%
tumours regressed ([1]; J+1): 90%
animals presenting a tumour ([1]; JO+5 hours): 5%
animals survived ([1]; JO+5 hours): 100%
mice with leukemia ([1]; JO+5 hours): 40%
tumours regressed ([1]; JO+5 hours): 100%
mortality ([2]; 0.3 mg/mouse (15 mg/kg), IP, read-out: dead mice (converted)): 0%
mortality ([2]; 0.5 mg/mouse (25 mg/kg), IP, read-out: dead mice (converted)): 0%
mortality ([2]; 0.6 mg/mouse (30 mg/kg), IP, read-out: dead mice (converted)): 50%
mortality ([2]; 1 mg/mouse (50 mg/kg), IP, read-out: dead mice (converted)): 33.3%
LD50 ([2]; mouse, adult F1 mice, IP): 30 mg/kg
LD50 ([3]; C3H, IP): 20 mg/kg
LD 100 [4]: 35 mg/kg
ILS % [5, 8]: 19.32%
MTS [5, 8]: 14.2
Surviving mice [5, 8]: 1
ILS % [5, 9]: 21%
MTS [5, 9]: 14.4
Surviving mice [5, 9]: 0
ILS % [5, 10]: 36.35%
MTS [5, 10]: 14.18
ILS % [5, 11]: 28.85%
MTS [5, 11]: 13.4
antitumoral activity, single vs fractioned dose ([5]; same dose single or on 4 occasions): a single dose has greater antitumoral activity than the same dose injected on 4 occasions
ILS % ([6]; 1 injection J+5, 10 mg/kg): 30.8%
MST ([6]; 1 injection J+5, 10 mg/kg): 32.7
ILS % [6, 12]: 9.6%
MST [6, 12]: 27.4
protective action concerning metastasic pulmonary invasion of the lung ([6]; IP from J+5): give a protective action
pulmonary metastases counted ([6]; one mouse sacrificed day J+22, one injection J+5, non-treated mouse 77): 35

Cc1c2ccncc2c(C)c2c1[nH]c1ccncc12 [Example 1, 5,11-dimethyl dipyrido [4,3-b][3,4-f] indole]
mean spleen weight (range) ([7]; 25 mg/kg): 1,803 (718-2,635) mg
mean spleen weight (range) ([7]; 50 mg/kg): 960 (373-1,230) mg
ILS % ([7]; 0.1 mg): 59.5%
Weight of the spleens on the 21st day ([7]; 0.1 mg): 2013 mg
Mean survival time (first-last death) ([7]; 0.1 mg, IP): 47.6 (26-78) Days
ILS % ([7]; 0.5 mg): 14.6%
Mean survival time (first-last death) ([7]; 0.5 mg): 34.2 (22.54) Days
Weight of the spleens on the 21st day ([7]; 0.5 mg): 1803 mg
ILS % ([7]; 1 mg): 39.7%
Mean survival time (first-last death) ([7]; 1 mg): 41.7 (14-81) Days
Weight of the spleens on the 21st day ([7]; 1 mg): 959,6 mg
animals presenting a tumour ([1]; JO+5 hours): 50%
animals survived ([1]; JO+5 hours): 75%
mice with leukemia ([1]; JO+5 hours): 65%
tumours regressed ([1]; JO+5 hours): 30%
mortality ([2]; mouse, ip, 20 mg/kg): 16.7%
mortality ([2]; mouse, ip, 40 mg/kg): 12.5%
mortality ([2]; mouse, ip, 80 mg/kg): 83.3%
LD50 ([3]; ip): 100 mg/kg
LD 100 [4]: 200 mg/kg
